Laboratory results published in patent US12692287B2, “Polymorphic form of reduced B-nicotinamide mononucleotide calcium salt, and preparation method and use therefor” (EffePharm (Shanghai) Co., Ltd., priority 2023, dated 2026).
Where two headings read alike, the source gives them in different places.

Experiments:
[1] = Hygroscopicity: solids placed openly at 25° C. and 65% RH, water content by KF; type: physicochemical
Description: The solid forms of NMNH calcium salt crystalline form A, crystalline form B, crystalline form C, crystalline form D, and crystalline form E were placed openly in a stability test chamber at 25° C. and 65% RH to evaluate their stability and hygroscopicity.

[2] = Stability: solids placed openly in a stability test chamber at 25° C. and 65% RH, purity by HPLC; type: physicochemical; conditions: calcium salt
Excerpt: NMNH is the reduced form of NMN, sensitive to air, easily oxidized, and unstable, making it unsuitable for long-term storage and market promotion. WO2023160405 (A1) reported the NMNH disodium salt compound and its crystalline and amorphous forms. […] Such stability fails to meet the shelf-life requirements for commercial products, hindering market promotion. The solid forms of NMNH calcium salt crystalline form A, crystalline form B, crystalline form C, crystalline form D, and crystalline form E were placed openly in a stability test chamber at 25° C. and 65% RH to evaluate their stability and hygroscopicity.

[3] = cited from earlier work; for Purity (HPLC, area %) / Appearance of the solid: 25° C., 65% RH, data of WO2023160405 (A1); for Purity: 25° C. and 65% RH / air, WO2023160405 (A1)
[4] = WO2023160405 (A1); cited from earlier work

Structure (SMILES) | Water content of NMNH calcium salt crystalline form (KF) ([1]; 0 day) [%] | Water content of NMNH calcium salt crystalline form (KF) ([1]; 5 days) [%] | Water content of NMNH calcium salt crystalline form (KF) ([1]; 60 days) [%] | Purity (HPLC, area %) ([2]; 0 day) [area %] | Purity (HPLC, area %) ([2]; 5 days) [area %] | Purity (HPLC, area %) ([2]; 60 days) [area %] | other results
NC(=O)C1=CN([C@@H]2O[C@H](COP(=O)(O)O)[C@@H](O)[C@H]2O)C=CC1.[Ca+2] [NMNH calcium salt Crystalline Form A, reduced β-nicotinamide mononucleotide calcium salt] | 9.2 | 9.2 | 9.0 | 99.83 | 99.82 | 99.82 | –
NC(=O)C1=CN([C@@H]2O[C@H](COP(=O)([O-])[O-])[C@@H](O)[C@H]2O)C=CC1.[Na+].[Na+] [NMNH disodium salt Crystalline Form A, NMNH disodium salt] | – | – | – | – | – | – | Purity (HPLC, area %) ([3]; 0 day, disodium salt): 99.33 area %; Purity (HPLC, area %) ([3]; 1 day, disodium salt): 99.27 area %; Purity (HPLC, area %) ([3]; 5 days): 99.01 area %; Purity ([3]; after 5 days): 99.01%; Purity ([3]; text, initial value before exposure, listed as NMNH disodium salt crystalline Form A, disodium salt): 99.33%; Purity ([3]; text, initial value before exposure, listed as NMNH disodium salt crystalline form A, disodium salt): 99.33%
NC(=O)C1=CN([C@@H]2O[C@H](COP(=O)([O-])[O-])[C@@H](O)[C@H]2O)C=CC1.[Na+].[Na+] [NMNH disodium salt Amorphous Form, NMNH disodium salt] | – | – | – | – | – | – | Appearance of the solid ([3]; 0 day, disodium salt): (powder); Purity (HPLC, area %) ([3]; 0 day, disodium salt): 99.30 area %; Appearance of the solid ([3]; 0 day, listed as amorphous solid of NMNH disodium salt, disodium salt): powder; Purity (HPLC, area %) ([3]; 1 day, disodium salt): 99.02 area %; Appearance of the solid ([3]; after 1 day, disodium salt): (oil); Appearance of the solid ([3]; after 1 day, listed as NMNH disodium salt amorphous powder, disodium salt): oil; Appearance of the solid ([3]; after 1 day, listed as amorphous solid of NMNH disodium salt, disodium salt): oil; Purity ([3]; after 1 day): 99.02%; Purity ([3]; initial value before exposure, listed as NMNH disodium salt amorphous powder, disodium salt): 99.30%; Purity ([3]; initial value before exposure, listed as amorphous solid of NMNH disodium salt, disodium salt): 99.30%
NC(=O)C1=CN([C@@H]2O[C@H](COP(=O)([O-])[O-])[C@@H](O)[C@H]2O)C=CC1.[Na+].[Na+] [NMNH disodium salt crystalline form B, NMNH disodium salt] | – | – | – | – | – | – | Behaviour of the crystalline form when stored in the air [4]: absorb water and transform into crystalline form A

Second part, led by results:

Water content of NMNH calcium salt crystalline form (KF) ([1]; 0 day) [%] | Water content of NMNH calcium salt crystalline form (KF) ([1]; 5 days) [%] | Water content of NMNH calcium salt crystalline form (KF) ([1]; 60 days) [%] | Purity (HPLC, area %) ([2]; 0 day) [area %] | Purity (HPLC, area %) ([2]; 5 days) [area %] | Purity (HPLC, area %) ([2]; 60 days) [area %] | Structure (SMILES) | other results
9.5 | 9.5 | 9.3 | 99.78 | 99.78 | 99.79 | NC(=O)C1=CN([C@@H]2O[C@H](COP(=O)(O)O)[C@@H](O)[C@H]2O)C=CC1.[Ca+2] [NMNH calcium salt Crystalline Form C, reduced β-nicotinamide mononucleotide calcium salt] | –
20.3 | 20.3 | 20.0 | 99.60 | 99.60 | 99.59 | NC(=O)C1=CN([C@@H]2O[C@H](COP(=O)(O)O)[C@@H](O)[C@H]2O)C=CC1.[Ca+2] [NMNH calcium salt Crystalline Form E, reduced β-nicotinamide mononucleotide calcium salt] | –
18.4 | 18.4 | 18.3 | 99.64 | 99.64 | 99.64 | NC(=O)C1=CN([C@@H]2O[C@H](COP(=O)(O)O)[C@@H](O)[C@H]2O)C=CC1.[Ca+2] [NMNH calcium salt Crystalline Form D, reduced β-nicotinamide mononucleotide calcium salt] | –
13.3 | 13.2 | 12.9 | 99.75 | 99.75 | 99.75 | NC(=O)C1=CN([C@@H]2O[C@H](COP(=O)(O)O)[C@@H](O)[C@H]2O)C=CC1.[Ca+2] [NMNH calcium salt Crystalline Form B, reduced β-nicotinamide mononucleotide calcium salt] | –
